Values of other authors in US20130130972A1, “ARTIFICIAL SWEETNERS AND PERFORMANCE” (priority 2010, published 2013).
Where a SMILES comes first, the peptide text is derived from it.

Conditions: typically perceived sweetness, relative to sugar

CC1=CC(=O)NS(=O)(=O)O1 [Acesulfame potassium]
Sweetness by weight compared to sugar: 200×

C[C@@H](NC(=O)[C@@H](N)CC(=O)O)C(=O)NC1C(C)(C)SC1(C)C [Alitame]
Sweetness by weight compared to sugar: 2.000×

COC(=O)[C@H](Cc1ccccc1)NC(=O)[C@@H](N)CC(=O)O [Aspartame] (H-Asp-Phe-OMe)
Sweetness by weight compared to sugar: 160-200×

CCOc1ccc(NC(N)=O)cc1 [Dulcin]
Sweetness by weight compared to sugar: 250×

OC[C@@H](O)[C@@H](O)CO [Erythritol]
Sweetness by weight compared to sugar: 0.7×

OCC(O)CO [Glycerol]
Sweetness by weight compared to sugar: 0.6×

CC1(C)[C@@H](O[C@H]2O[C@H](C(=O)O)[C@@H](O)[C@H](O)[C@H]2O[C@@H]2O[C@H](C(=O)O)[C@@H](O)[C@H](O)[C@H]2O)CC[C@]2(C)[C@H]3C(=O)C=C4[C@@H]5C[C@@](C)(C(=O)O)CC[C@]5(C)CC[C@@]4(C)[C@]3(C)CC[C@@H]12 [Glycyrrhizin]
Sweetness by weight compared to sugar: 50×

OC[C@@H](O)[C@@H](O[C@@H]1O[C@H](CO)[C@H](O)[C@H](O)[C@H]1O)[C@H](O)[C@@H](O)CO [Lactitol]
Sweetness by weight compared to sugar: 0.4×

OC[C@@H](O)[C@@H](O[C@H]1O[C@H](CO)[C@@H](O)[C@H](O)[C@H]1O)[C@H](O)[C@@H](O)CO [Maltitol]
Sweetness by weight compared to sugar: 0.9×

OC[C@@H](O)[C@@H](O)[C@H](O)[C@H](O)CO [Mannitol]
Sweetness by weight compared to sugar: 0.5×

COc1ccc(CCC(=O)c2c(O)cc(O[C@@H]3O[C@H](CO)[C@@H](O)[C@H](O)[C@H]3O[C@@H]3O[C@@H](C)[C@H](O)[C@@H](O)[C@H]3O)cc2O)cc1O [Neohesperidin dihydrochalcone]
Sweetness by weight compared to sugar: 1500×

COC(=O)[C@H](Cc1ccccc1)NC(=O)[C@H](CC(=O)O)NCCC(C)(C)C [Neotame]
Sweetness by weight compared to sugar: 8000×

CCCOc1ccc([N+](=O)[O-])cc1N [P-4000]
Sweetness by weight compared to sugar: 4000×

O=C1NS(=O)(=O)c2ccccc21 [Saccharin]
Sweetness by weight compared to sugar: 300×

CC1=CC(=O)NS(=O)(=O)O1.COC(=O)[C@H](Cc1ccccc1)NC(=O)[C@@H](N)CC(=O)O [Salt of aspartame-acesulfame] (H-Asp-Phe-OMe)
Sweetness by weight compared to sugar: 350×

OC[C@@H](O)[C@@H](O)[C@H](O)[C@@H](O)CO [Sorbitol]
Sweetness by weight compared to sugar: 0.6×

OC[C@H]1O[C@H](O[C@]2(CCl)O[C@H](CCl)[C@@H](O)[C@@H]2O)[C@H](O)[C@@H](O)[C@H]1Cl [Sucralose]
Sweetness by weight compared to sugar: 600×

O=C(CO)[C@@H](O)[C@@H](O)[C@H](O)CO [Tagatose]
Sweetness by weight compared to sugar: 0.92×

OC[C@@H](O)[C@H](O)[C@@H](O)CO [Xylitol]
Sweetness by weight compared to sugar: 1.0×

Brazzein (QDKCKKVYENYPVSKCQLANQCNYDCKLDKHARSGECFYDEKRNLQCICDYCEY; UniProt P56552 1-54, looked up) [natural sugar substitute]
Sweetness by weight compared to sugar: 800×

Curculin
Sweetness by weight compared to sugar: 550×

Glucin
Sweetness by weight compared to sugar: 300×

Mabinlin [Mabinlin Protein]
Sweetness by weight compared to sugar: 100×

Monellin
Sweetness by weight compared to sugar: 3000×

Pentadin
Sweetness by weight compared to sugar: 500×

Thaumatin
Sweetness by weight compared to sugar: 2000×
